From article PMC7503848 (International Journal of Molecular Sciences, 2020) come the findings set out here.

Experiment [1] concerns myosin A tail. The experiment is described as follows: Far Western-Dot blot assay. The experiment is classed as binding, Plasmodium falciparum. The conditions noted are these: 5 µg immobilized on nitrocellulose; 5 µg/mL biotinylated myosin A tail, 2 h room temperature; anti-biotin. Here is the method: For Far-Western Dot-blot assay, 5 µg each of ZA1S peptide, BSA, and non-specific peptide (N′- pSDNGpSGDD -C′) was immobilized on the strip. Subsequent to the drying of the membrane, it was blocked overnight at 4 °C, following which the second peptide myosin A was overlaid in 5 µg/mL of binding solution (1% BSA/PBST) on the strip for 2 h at room temperature. The strip was washed stringently, and the bound myosin A peptide was detected using an anti-biotin antibody (1:100 dilution) and HRP-conjugated secondary antibody.

Experiment [2] has as its system myosin A tail. Description: ELISA, myosin A tail on immobilized ZA1S. The experiment is classed as binding, Plasmodium falciparum. As to conditions: ZA1S coated, myosin A tail overlaid, anti-biotin antibody, 450 nm. From the text:
All wells were put up in triplicates.
On the technique in general: ELISA stands for enzyme-linked immunosorbent assay.

In experiment [3] the test system is P. falciparum 3D7. Description: Growth inhibition assay (GIA), P. falciparum 3D7. The experiment is classed as cell-based, Plasmodium falciparum. As for the experimental part:
P. falciparum 3D7 strain was thawed and cultured in vitro in human O+ erythrocytes at 4% hematocrit using the method described previously. Briefly, parasites were cultured in medium containing RPMI 1640 (Invitrogen, Carlsbad, CA, USA), supplemented with 2 g/L NaHCO3 (Sigma, St. Louis, MO, USA), 5 g/L albumax (Invitrogen), 50 mg/L hypoxanthine (Sigma), and 10 µg/mL gentamicin sulfate (Invitrogen, Carlsbad, CA, USA) at a pH of 7.2 under mixed gas condition (5% CO2, 5% O2, […]) at 37 °C.
For the growth inhibition assay, 36–38 h’ parasites were purified by percoll (GE Healthcare, Chicago, IL, USA) density gradient centrifugation. The assay was put on the late trophozoite stage in a 24-well plate in quadruplets in a total 500 µL volume/well. Initial parasitemia and hematocrit were adjusted to 1% and 2%, respectively. ZA1S peptide was added at a final concentration of 10 µM, 20 µM, and 40 µM. Control wells without any peptide or inhibitor were set to validate the normal growth rate of the parasite. After 24 h, a smear was made and fixed in methanol, followed by staining with 10% Giemsa (Sigma, St. Louis, MO, USA) for 10 min. The percent of infected erythrocytes containing different stages of the parasite was counted using a light microscope under 100X oil-immersion. The percent of growth inhibition was calculated using the following formula, and data were plotted graphically. % Growth inhibition = (Control-treated)/Control × 100

Entries after “also recorded” stand apart in the source; their conditions may differ.

Consider “DIDIDIMHE [ZA1S, nine amino acid long shortened peptide derived from ZA1 (…)]”, for which the “Detection of bound myosin A” value in experiment [1] is on record as “Myosin A was detected in the spot corresponding to ZA1S”. For the same sequence, the “Binding of myosin A tail to ZA1S” value in experiment [2] is “significant binding”. Besides, in experiment [3] (10, 20, 40 µM ZA1S on late trophozoite/schizont stage, 24 h, 1% parasitemia, 2% hematocrit, human O+ erythrocytes, Giemsa smear), the Invasion inhibition entry was “concentration-dependent increase in invasion inhibition; also recorded: abrogated the invasion of P. falciparum in RBCs”. In addition, the “Completeness of parasite invasion inhibition” value in experiment [3] (Pfal growth inhibition assay) is given as “we did not find a complete disruption of myosin A/MTIP complex so as to completely inhibit parasite invasion”. Further, the Parasite morphology result in experiment [3] (increasing concentrations of ZA1S (10, 20, 40 µM), 24 h, Giemsa smear) is listed as “no change in the parasite morphology”.
